Assay results taken from patent US7494976B2, “Caveolin peptides and their use as therapeutics” (Yale University, priority 2000, dated 2009).
“Also recorded” adds a separate entry of the source.

Legend:
isolated mouse aortas = test: Sodium nitroprusside induced (endothelium independent) relaxation of mouse aorta; settings: 10 μM peptide, twenty hours; SNP 10 μM
vascular leakage = test: Mustard oil induced Evans blue extravasation in the mouse ear (vascular permeability); type: in vivo; settings: 2 mg/kg i.p., forty-five minute pretreatment; read after thirty minutes
Protocol: FIG. 10—AP-caveolin peptide reduces vascular leakage. Mice were pretreated with AP-Cav, AP-Cav-X (2 mg/kg of each, i.p.) or L-NAME (30 mg/kg, i.p.) for forty-five minutes followed by Evans blue administration (30 mg/kg, i.v.). Mustard oil was applied to the ventral and dorsal side of the right ear one minute after Evans blue injection. The extent of Evans blue extravasation was assessed after thirty minutes (n=4 mice per group for vehicle and L-NAME treated mice and n=5 for AP-Cav and AP-Cav-X treated mice; *p<0.05). (D) Representative pictures of mice subjected to mustard oil induced inflammation.
To directly assess if the AP-peptide can influence vascular leakage in an additional model, we treated mice with vehicle, AP-Cav, AP-Cav-X (2 mg/kg, i.p. for each; forty-five minute pretreatment) or L-NAME (30 mg/kg, i.p., […] pretreatment) and examined the ability of mustard oil to induce the extravasation of Evans blue, as an index of vascular permeability. […] Thus, in two distinct models, AP-Cav reduces inflammation likely through attenuating eNOS-dependent blood flow and/or permeability changes evoke by inflammatory stimuli.

isolated mouse aorta [1] = test: Ach-induced relaxation of isolated mouse aortic rings (organ bath); settings: 10 μM peptide, twenty hours incubation, PE precontracted rings
Protocol: (§1) For isolated mouse aortic rings preparations, male C57 black mice (5-7 weeks of age) were anesthetized with methoxyflurane and sacrificed by exsanguination. The thoracic aorta was dissected and cut into cylindrical segments of three millimeters in length. Using a sterile 48-well tissue culture plate, each ring was incubated in a total volume of one ml with either peptides or vehicle (DMSO) diluted in DMEM supplemented with penicillin (100 units/ml), streptomycin (100 μg/ml) and L-glutamine (1 mM). The plate was incubated with 5% CO2. Following incubation with the peptides (one, six, twelve or twenty hours), rings were washed in oxygenated (95% O2-5% CO2) Krebs-Henseleit bicarbonate buffer solution (KHS) of the following composition (NaCl—118.3 mmol/L, KCl—4.7 mmol/L, CaCl2—2.5 mmol/L, MgSO4—1.2 mmol/L, KH2PO4—1.2 mmol/L, NaHCO3—25 mmol/L, glucose—5.6 mmol/L at 37° C. with ibuprofen (10 μM). The rings were suspended by two tungsten wires ([…] thickness) inserted into the lumen and mounted in a vessel myograph system (five ml chamber, Kent Scientific). The mouse aortas were submitted to a resting tension of 1.5 grams and isometric tension was recorded using a force transducer coupled to a MacLab data acquisition system. […] In some experiments concentration-response curves to the contractile effects of PE were monitored.

HepG-2 tumors = test: HepG-2 tumor growth in nude mice; type: in vivo, mouse; settings: 2.5 mg/kg, day fourteen
Protocol: The ability of the AP-Cav peptide to influence tumor growth in vivo was also examined. Nude mice were injected with the HepG-2 cells, a human hepatocarcinoma line, and the effects of AP-Cav and AP-Cav-X examined after daily administration of the peptides intraperitoneal. For HepG-2 cells implants in nude mice, the human hepatocarcinoma cell line, HepG-2, was cultured in minimal essential media with 10% fetal bovine serum, 2 mM L-glutamine, penicillin and streptomycin. Cells were grown on 150 mm dishes up to 80% confluence, trypsinized and ressuspended in serum free media. Viable cells were counted using the trypan blue exclusion method. A cell suspension was prepared at a density of 5×10^7 cells/ml. Nude mice were then injected in the flank with 100 μl of the HepG-2 cell suspension.
When the tumors reached a solid palpable mass (7-10 days), treatment with the different drugs began. Peptides were dissolved in 0.01% (v/v) DMSO and administered daily by i.p. injection (100 μl/20 gram mouse) for fourteen days. Tumor volume was determined every day using the formula width^2×length×0.52. For histochemistry tumors were excised from the animal at day fourteen, washed in phosphate buffered saline and fixed in 70% ethanol. […] Images were captured using a Zeiss microscope coupled to a CCD camera and were recorded with the NIH Image program.

prostacyclin production = test: Prostacyclin release from mouse aortic rings (6-keto-PGF1α by EIA); settings: peptide twenty hours; Ach 1 μM thirty minutes
Protocol: To further test the specificity of AP-Cav, Ach-induced prostacyclin production was measured. For measurement of prostacyclin release, after twenty hour incubation period, aortic segments (4-5 mm) were placed in sterile 48-well tissue culture plates with 300 μl of KHS at 37° C. for thirty minutes in an incubator. Then aliquots of […] were taken in order to measure the basal release of prostacyclin. Ach (1 μM) was added and the plate was kept in the incubator for an additional thirty minutes. Aliquots were then taken in order to measure the Ach-stimulated release of prostacyclin. This protocol was performed in absence or in presence of ibuprofen (10 μM). The aliquots were frozen and prostacyclin release was measured as the stable breakdown product, 6-keto-PGF1α, by EIA (Amersham).

[2] = system: carrageenan induced paw edema; test: Murine carrageenan induced paw edema model; type: in vivo, mouse; settings: 1 mg/kg, paws 48 hours post-injection, H&E
Protocol: For in vivo inflammation studies the murine carrageenan induced paw edema model was used. Briefly, male, Swiss mice (25-30 grams) were divided in groups (n=6-7) and lightly anaesthetised with methoxyflurane. Each group of animals received a subplantar administration of 50 μl of 1% (w/v) λ carrageenan. Paw volume was measured using a hydroplethismometer modified for measuring small volumes (Ugo Basile) immediately before the carrageenan injection and twenty-four and forty-eight hours thereafter. The increase in paw volume is evaluated as the difference between paw volume at each time point and the basal volume. AP-Cav (0.3, 1 mg/kg i.p.) AP-Cav-X (1 mg/kg i.p.) and dexamethasone (0.1 mg/kg s.c.) were administered at the time of carrageenin administration (time zero) and at twenty-four and forty-eight hours. In a separate series of experiments, forty-eight hours post carrageenan injections, animals were sacrificed by cervical dislocation and both paws were cut. The right paws were embedded in OCT medium and cross sections ([…] of thickness) were obtained for staining with hematoxylin and eosin.

[3] = system: bovine aortic endothelial cells (BAEC); test: Ionomycin stimulated NO release from cultured endothelial cells (chemiluminescence); type: cell-based; settings: 1 μM peptide six hours; ionomycin 1 μM thirty minutes
Protocol: For measurement of nitric oxide release from cultured endothelial cells, bovine aortic endothelial cells (BAEC) were cultured in high glucose Dulbecco's modified Eagle's medium (DMEM) containing 10% (v/v) fetal bovine serum, penicillin, streptomycin and L-glutamine. For measurement of ionomycin stimulated NO release, confluent BAEC were cultured in […]. Cells were washed and media was changed to serum free DMEM containing peptides or vehicle (0.01% DMSO). Following a six hour incubation, peptides were washed out and cells were stimulated with ionomycin (1 μM) for thirty minutes. Media was collected and processed for the measurement of nitrite (NO2—), the stable breakdown product of NO in aqueous solution, by NO-specific chemiluminescence. Samples containing NO2— were refluxed in glacial acetic acid containing sodium iodide. […] In all experiments, NO2— release was inhibitable by a NOS inhibitor.

isolated mouse aorta [4] = test: Phenylephrine-induced contraction of isolated mouse aorta; settings: 10 μM peptide preincubation
Protocol: as §1

mouse aortic rings = test: L-NAME induced contraction of peptide-pretreated mouse aortic rings; settings: vessels pretreated with 10 μM peptide; L-NAME 100 μM
Protocol: as §1, with “monitored. […]” for “monitored.”

Q: Which “effect on vasorelaxant properties of sodium nitroprusside” value (isolated mouse aortas) does the source give for “AP-Cav-X: Scrambled control peptide Cav-X (WGIDKAFFTTSTVTYKWFRY, SEQ ID NO: 9) fused to the antennapedia internalization sequence; SEQ ID NO: 12 (RQIKIWFQNRRMKWKKWGIDKAFFTTSTVTYKWFRY)” here?
A: The value was “had no effect”.

Q: And the “vascular leak (Evans blue extravasation)” value (vascular leakage)?
A: Its value is “dilated vessels and diffuse blue dye in the periphery of the right ear”.

Q: And the “effect on Ach-induced relaxation” value (isolated mouse aorta [1])?
A: The value was “did not influence Ach-induced relaxation”.

Q: What about the “tumor morphology (hematoxylin and eosin)” value (HepG-2 tumors) of the same substance?
A: Its value is “classical epitheliod appearance and were highly vascularized”.

Q: What about the “basal or Ach stimulated prostacyclin production (6-keto-PGF1α)” value (prostacyclin production) of the same substance?
A: The value was “Neither AP-Cav-X nor AP-Cav influenced; also recorded: do not affect Ach-induced prostacyclin release”.

Q: What about the “cellular infiltration into the sites of inflammation (histology)” value [2] of the same substance?
A: The value was “did not show marked differences”.

Q: What about the “calcium ionophore stimulated NOx release” value [3] of the same substance?
A: Its value is “but not AP-Cav-X blocked”.

Q: And the “potentiation of the vasoconstrictor actions of phenylephrine” value (isolated mouse aorta [4])?
A: The value was “but not AP-Cav-X resulted in potentiation”.

Q: What about the “further increase in isometric tension by L-NAME” value (mouse aortic rings) of the same substance?
A: The value was “further increased isometric tension”.
